According to ChEMBL document CHEMBL5344471, “64Cu-Labeled Boron-Containing Cyclic RGD Peptides for BNCT and PET Imaging” (ACS Med Chem Lett, 2024):
Calls of active or inactive are those of the source. No cut-off for these calls is given here.

Assays:
U-87 MG = experiment: Cytotoxicity against human U-87 MG cells at 10 to 400 uM incubated for 24 hrs by CCK-8 assay; assay type: functional, cell-based; conditions: U-87MG ATCC, dose 10-400 µM
[1] = Biodistribution in Balb/c mouse xenografted with human U-87 MG cells by measuring ratio of boron concentration in tumor to liver at 0.04 mmol,iv administrated for 1 hr by ICP-MS analysis; assay type: ADME, organism-based; conditions: in vivo
[2] = Biodistribution in Balb/c mouse xenografted with human U-87 MG cells by measuring ratio of boron concentration in tumor to muscle at 0.04 mmol,iv administrated for 1 hr by ICP-MS analysis; assay type: ADME, organism-based; conditions: in vivo
[3] = Biodistribution in Balb/c mouse xenografted with human U-87 MG cells by measuring ratio of boron concentration in tumor to brain at 0.04 mmol,iv administrated for 1 hr by ICP-MS analysis; assay type: ADME, organism-based; conditions: in vivo
[4] = Biodistribution in Balb/c mouse xenografted with human U-87 MG cells by measuring ratio of boron concentration in tumor to kidney at 0.04 mmol,iv administrated for 1 hr by ICP-MS analysis; assay type: ADME, organism-based; conditions: in vivo

Ratio [1]: 2.5
Ratio [2]: 2.41
Ratio [3]: 13.4
Ratio [4]: 0.43
Compound: N=C(N)NCCC[C@@H]1NC(=O)[C@H](CCCCN)NC(=O)[C@@H](Cc2ccc(B(O)O)cc2)NC(=O)[C@H](CC(=O)O)NC(=O)CNC1=O
Activity (U-87 MG): inactive
